Data taken from ChEMBL document CHEMBL4622887, “Antibacterial Pentacyclic Polyketides from a Soil-Derived Streptomyces” (2020).
In brackets after ≈: the same amount, converted by molar mass.

Columns and labels:
Format in all cases: functional
Staphylococcus aureus [1] = assay: Antibacterial activity against methicillin-resistant Staphylococcus aureus shhs-A1 incubated for 16 hrs by broth microdilution method; conditions: shhs-A1, 16 h
Staphylococcus aureus [2] = assay: Antibacterial activity against Staphylococcus aureus ATCC 6538 incubated for 16 hrs by broth microdilution method; conditions: ATCC 6538, 16 h
Escherichia coli = assay: Antibacterial activity against Escherichia coli ATCC 8099 incubated for 16 hrs by broth microdilution method; conditions: ATCC 8099, 16 h
Bacillus spizizenii = assay: Antibacterial activity against Bacillus subtilis ATCC 6633 incubated for 16 hrs by broth microdilution method; conditions: ATCC 6633, 16 h

Row | SMILES | MIC (Staphylococcus aureus [1]) [µg/mL] | MIC (Staphylococcus aureus [2]) [µg/mL] | MIC (Escherichia coli) [µg/mL] | MIC (Bacillus spizizenii) [µg/mL]
1 | COc1cc(C)c(-c2cc(OC)c(Cl)c3c2C(=O)[C@@]2(O)C(=O)c4c(O)cc(O)cc4C(C)(C)[C@H]2C3)c(O)c1 | 6.25 (≈ 11.6 µM) | 6.25 (≈ 11.6 µM) | 3.13 (≈ 5.81 µM) | 6.25 (≈ 11.6 µM)
2 | COc1cc(C)c(-c2cc(O)c(Cl)c3cc4c(c(O)c23)C(=O)c2c(O)cc(OC)cc2C4(C)C)c(OC)c1 | 6.25 (≈ 11.7 µM) | 6.25 (≈ 11.7 µM) | 6.25 (≈ 11.7 µM) | 6.25 (≈ 11.7 µM)
3 | COc1cc(C)c(-c2cc(OC)cc3cc4c(c(O)c23)C(=O)c2c(O)cc(O)cc2C4(C)C)c(OC)c1 | 1.56 (≈ 3.12 µM) | 3.13 (≈ 6.25 µM) | 1.56 (≈ 3.12 µM) | 3.13 (≈ 6.25 µM)
4 | COc1cc(-c2c(O)cc(OC)c(Cl)c2C)c2c(O)c3c(cc2c1)C(C)(C)c1cc(O)cc(O)c1C3=O | 3.13 (≈ 6.01 µM) | 6.25 (≈ 12 µM) | 3.13 (≈ 6.01 µM) | 6.25 (≈ 12 µM)
5 | COc1cc(C)c(-c2cc(O)c(Cl)c3c2C(=O)[C@@]2(O)C(=O)c4c(O)cc(O)cc4C(C)(C)[C@H]2C3)c(O)c1 |  | 12.5 (≈ 23.8 µM) | 25 (≈ 47.6 µM) | 50 (≈ 95.2 µM)
6 | COc1cc(C)c(-c2cc(OC)c(Cl)c3cc4c(c(O)c23)C(=O)c2c(O)cc(O)cc2C4(C)C)c(OC)c1 | 3.13 (≈ 5.85 µM) | 3.13 (≈ 5.85 µM) | 3.13 (≈ 5.85 µM) | 12.5 (≈ 23.4 µM)
7 | COc1cc(OC)c(-c2cc(OC)c(Cl)c3c2C(=O)[C@@]2(O)C(=O)c4c(cc(O)c(Cl)c4O)C(C)(C)[C@H]2C3)c(C)c1Cl | 3.13 (≈ 5.03 µM) | 6.25 (≈ 10 µM) | 12.5 (≈ 20.1 µM) | 3.13 (≈ 5.03 µM)
8 | COc1cc(O)c(-c2cc(OC)c(Cl)c3c2C(=O)[C@@]2(O)C(=O)c4c(O)cc(O)cc4C(C)(C)[C@H]2C3)c(C)c1Cl | 1.56 (≈ 2.72 µM) | 0.39 (≈ 0.68 µM) | 1.56 (≈ 2.72 µM) | 1.56 (≈ 2.72 µM)
9 | COc1cc(C)c(-c2cc(OC)cc3cc4c(c(O)c23)C(=O)c2c(O)cc(O)cc2C4(C)C)c(O)c1 | 3.13 (≈ 6.43 µM) | 3.13 (≈ 6.43 µM) | 3.13 (≈ 6.43 µM) | 6.25 (≈ 12.8 µM)
10 | COc1cc(OC)c(-c2cc(OC)c(Cl)c3c2C(=O)[C@@]2(O)C(=O)c4c(O)cc(O)cc4C(C)(C)[C@H]2C3)c(C)c1Cl | 25 (≈ 42.6 µM) | 6.25 (≈ 10.6 µM) | 25 (≈ 42.6 µM) | 25 (≈ 42.6 µM)
11 | COc1cc(O)c(-c2cc(O)cc3cc4c(c(O)c23)C(=O)c2c(O)cc(O)cc2C4(C)C)c(C)c1Cl | 1.56 (≈ 3.08 µM) | 3.13 (≈ 6.17 µM) | 3.13 (≈ 6.17 µM) | 3.13 (≈ 6.17 µM)
12 | COc1cc(C)c(-c2cc(OC)c(Cl)c3c2C(=O)[C@@]2(O)C(=O)c4c(O)c(Cl)c(O)c(Cl)c4C(C)(C)[C@H]2C3)c(OC)c1 | 0.2 (≈ 0.322 µM) | 0.39 (≈ 0.627 µM) | 0.78 (≈ 1.25 µM) | 0.39 (≈ 0.627 µM)
13 | COc1cc(C)c(-c2cc(OC)c(Cl)c3c2C(=O)[C@@]2(O)C(=O)c4c(O)cc(O)c(Cl)c4C(C)(C)[C@H]2C3)c(OC)c1 | 1.56 (≈ 2.66 µM) | 0.78 (≈ 1.33 µM) | 1.56 (≈ 2.66 µM) | 3.13 (≈ 5.33 µM)
14 | COc1cc(O)cc(C)c1-c1cc(O)c(Cl)c2cc3c(c(O)c12)C(=O)c1c(O)cc(O)cc1C3(C)C | 3.13 (≈ 6.17 µM) | 1.56 (≈ 3.08 µM) | 6.25 (≈ 12.3 µM) | 6.25 (≈ 12.3 µM)
15 | COc1cc(OC)c(-c2cc(OC)c(Cl)c3c2C(=O)[C@@]2(O)C(=O)c4c(O)cc(O)c(Cl)c4C(C)(C)[C@H]2C3)c(C)c1Cl | 3.13 (≈ 5.03 µM) | 3.13 (≈ 5.03 µM) | 1.56 (≈ 2.51 µM) | 1.56 (≈ 2.51 µM)
16 | COc1cc(C)c(-c2cc(OC)c(Cl)c3c2C(=O)[C@@]2(O)C(=O)c4c(O)cc(O)cc4C(C)(C)[C@H]2C3)c(OC)c1 | 1.56 (≈ 2.82 µM) | 3.13 (≈ 5.66 µM) | 3.13 (≈ 5.66 µM) | 3.13 (≈ 5.66 µM)
17 | COc1cc2c(c(-c3c(O)cc(OC)c(Cl)c3C)c1)C(=O)[C@@]1(O)C(=O)c3c(O)cc(O)cc3C(C)(C)[C@H]1C2 | 3.13 (≈ 5.81 µM) | 3.13 (≈ 5.81 µM) | 3.13 (≈ 5.81 µM) | 6.25 (≈ 11.6 µM)
18 | NC[C@H]1O[C@H](O[C@H]2[C@H](O)[C@@H](O[C@H]3O[C@H](CO)[C@@H](O)[C@H](N)[C@H]3O)[C@H](N)C[C@@H]2N)[C@H](O)[C@@H](O)[C@@H]1O [KANAMYCIN] |  | 1.56 (≈ 3.22 µM) | 50 (≈ 103 µM) | 0.78 (≈ 1.61 µM)
19 | CN[C@H](CC(C)C)C(=O)N[C@H]1C(=O)N[C@@H](CC(N)=O)C(=O)N[C@H]2C(=O)N[C@H]3C(=O)N[C@H](C(=O)N[C@H](C(=O)O)c4cc(O)cc(O)c4-c4cc3ccc4O)[C@H](O)c3ccc(c(Cl)c3)Oc3cc2cc(c3O[C@@H]2O[C@H](CO)[C@@H](O)[C@H](O)[C@H]2O[C@H]2C[C@](C)(N)[C@H](O)[C@H](C)O2)Oc2ccc(cc2Cl)[C@H]1O [VANCOMYCIN] | 1.56 (≈ 1.08 µM) |  |  | 
